# Laboratory results: patent US9765054B2, “Histone deacetylase inhibitors and compositions and methods of use thereof” (CHDI Foundation, Inc., priority 2011, dated 2017)
# Legend:
# [1] = target: human catalytic domain HDAC4 protein (Homo sapiens, UniProt P56524, A743G/DEL730-739/DEL742-742); test: Inhibition of HDAC4 catalytic domain enzymatic activity, Boc-Lys(Tfa)-AMC substrate, fluorescence; details: Class IIa selective substrate Boc-Lys(Tfa)-AMC, read-out: Biochemical HDAC-4 IC50;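 also: trypsin releases AMC from deacetylated substrate, fluorescence tracks enzyme activity, 15 min reaction at 37 °C, 100% activity defined by DMSO-only control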
# [2] = system: cellular histone deacetylase enzymatic activity in Jurkat E6-1 cells; test: Inhibition of cellular HDAC activity, Boc-Lys(Tfa)-AMC substrate, in Jurkat E6-1 cells; type: cell-based; details: Homo sapiens, Class IIa selective substrate Boc-Lys(Tfa)-AMC
# Text: The potency of Class IIa Histone Deacetylase (HDAC) inhibitors is quantified by measuring the cellular histone deacetylase enzymatic activity using the Class IIa selective substrate, Boc-Lys(Tfa)-AMC. After penetration in Jurkat E6-1 cells, the substrate is deacetylated to Boc-Lys-AMC. After cell lysis and cleavage by trypsin, the fluorophore AMC is released from the deacetylated substrate only. The fluoresence of the sample is directly related to the histone deacetylase activity in the sample.
# Jurkat E6.1 Cell Culture and Plating.
# Jurkat E6.1 cells are cultured according to standard cell culture protocols in Jurkat E6.1 Growth Media (RPMI without phenol red, 10% FBS, 10 mM HEPES, and 1 mM Sodium Pyruvate). Jurkat E6.1 cells are counted using a Coulter Counter and resuspended in Jurkat E6.1 growth media at a concentration of 75,000 cells/35 μl. 35 μl or 75,000 cells is seeded into Greiner microtitre assay plates. The plates are then incubated at 37° C. and 5% CO2 while other assay components are being prepared.
# Serially Dilute HDAC Inhibitor Compounds.
# Serial dilutions of the HDAC inhibitors and control reference compound (1-(5-(3-((4-(1,3,4-oxadiazol-2-yl)phenoxy)methyl)-1,2,4-oxadiazol-5-yl)thiophen-2-yl)-2,2,2-trifluoroethanone) are made by first resuspending the lyophilized compound to a final concentration of 10 mM in 100% DMSO. Stocks of 70 μl aliquots of the 10 mM compound in DMSO are prepared and stored at −20° C. From one stock aliquot of each compound to be tested and the reference compound, a 16-point serial dilution is prepared according to Table 7 using a 125 μl 16-channel Matrix multi-channel pipette.
# 2 μl (200×) of each diluted solution and each control (full activity: 100% DMSO alone or full inhibition 1 mM) is stamped into V-bottom polypropylene 384-well compound plates using either the Bravo, Janus, or […] 16-channel Matrix multi-channel pipette. Each well with the 200× compound solution is diluted 1:20 by the addition of 38 μl Jurkat assay buffer+DMSO (9.5% DMSO, RPMI without phenol red, 0.09% FBS, 9 mM Hepes, and 0.9 mM Sodium Pyruvate equilibrated to room temperature)
# Prepare 5× (500 μM) Boc-Lys(Tfa)-AMC Substrate.
# 5× (500 μM) substrate is prepared just prior to the addition to the assay. The 5× substrate is prepared by diluting a 100 mM Boc-Lys(Tfa)-AMC in DMSO solution 1:200 by adding it drop-wise to Jurkat assay medium (RPMI without phenol red, 0.1% FBS, 10 mM Hepes, and 1 mM Sodium Pyruvate equilibrated to 37° C.) while vortexing at slow speed to prevent precipitation.
# 10 ml of 3× lysis buffer is prepared with 8.8 ml of 3× stock lysis buffer (50 mM Tris-HCl, pH 8.0, 137 mM NaCl, 2.7 mM KCl, 1 mM MgCl2, 1% Nonidet P40 Substitute equilibrated to room temperature) and 1.2 ml of 3 mg/ml Trypsin equilibrated to room temperature.
# 5 μl of each solution of 1:20 diluted compound from above is transferred to the Greiner microtitre assay plates with 75,000 cells/well using the Bravo. Cells are then incubated for 2 hours at 37° C. and 5% CO2. The assay is then started by adding 10 μl of 5× (500 μM) substrate to the assay plate using either the Bravo or 16-channel Matrix multi-channel pipette. The cells are then incubated for 3 hours at 37° C. and 5% CO2. Next, 25 μl of 3× lysis buffer is added to each well using either the 125 μl 16 channel pipette or the Bravo. The assay plate is then incubated overnight (15-16 hours) at 37° C. and 5% CO2. The following day, the plates are shaken on an orbital shaker for 1 minute at 900 rpm. Finally the top read fluorescence (Excitation: 355 nm, Emission: 460 nm) is measured using PerkinElmer EnVision.
Compound,IC50 [1],IC50 [2]
"O=C(NO)[C@@H]1[C@H](c2ccccc2)[C@H]1c1cccc(N2CCN3CCCC3C2)c1 (relative stereo) [Compound 56f, (1R*,2R*,3R*)-2-(3-(Hexahydropyrrolo[1,2-a]pyrazin-2(1H)-yl)phenyl)-N-hydroxy-3-phenylcyclopropanecarboxamide]",630 nM,1850 nM
"Cc1ccccc1[C@H]1[C@H](C(=O)NO)[C@@H]1c1ccccc1 (racemic) [Compound 18a, (1R*,2R*,3R*)—N-Hydroxy-2-phenyl-3-o-tolylcyclopropanecarboxamide]",1720 nM,13200 nM
"O=C(NO)[C@@H]1[C@H](c2ccccc2)[C@H]1c1ccc(C2=CCN(Cc3ccccc3)CC2)cc1 [Compound 71, (1R,2R,3R)-2-(4-(1-Benzyl-1,2,3,6-tetrahydropyridin-4-yl)phenyl)-N-hydroxy-3-phenylcyclopropanecarboxamide]",350 nM,750 nM
"O=C(NO)[C@H]1[C@H](c2cc(Cl)c3c(c2)OCCO3)[C@H]1c1ccccc1F [Compound 25f, (1S,2R,3R)-2-(8-Chloro-2,3-dihydrobenzo[b][1,4]dioxin-6-yl)-3-(2-fluorophenyl)-N-hydroxycyclopropanecarboxamide]",30 nM,240 nM
"O=C(NO)[C@@H]1[C@H](c2ccccc2)[C@H]1c1cccc(N2CCCn3nccc32)c1 [Compound 56h, (1R,2R,3R)-2-(3-(6,7-Dihydropyrazolo[1,5-a]pyrimidin-4(5H)-yl)phenyl)-N-hydroxy-3-phenylcyclopropanecarboxamide]",170 nM,770 nM
"O=C(NO)[C@@H]1[C@H](c2ccccc2)[C@H]1c1ccc(-c2ncc(C(F)(F)F)cn2)cc1 [Compound 50e, (1R,2R,3R)-2-(4-(5-Trifluoromethylpyrimidin-2-yl)phenyl)-N-hydroxy-3-phenylcyclopropanecarboxamide]",180 nM,690 nM
"O=C(NO)[C@H]1[C@H](c2cc(C3CC3)nc(C3CC3)c2)[C@H]1c1ccccc1F [Compound 88, (1S,2R,3R)-2-(2,6-Dicyclopropylpyridin-4-yl)-3-(2-fluorophenyl)-N-hydroxycyclopropanecarboxamide]",200 nM,1480 nM
"Cc1cccc([C@H]2[C@H](C(=O)NO)[C@@H]2c2ccccc2)c1 (racemic) [Compound 18b, (1R*,2R*,3R*)—N-Hydroxy-2-phenyl-3-m-tolylcyclopropanecarboxamide]",150 nM,2740 nM
"CN1CCN(c2ccc([C@H]3[C@H](C(=O)NO)[C@@H]3c3ccccc3)cc2)CC1 (racemic) [Compound 56i, (1R*,2R*,3R*)—N-Hydroxy-2-(4-(4-methylpiperazin-1-yl)phenyl)-3-phenylcyclopropanecarboxamide]",140 nM,1310 nM
"Cc1cnc(-c2cccc([C@H]3[C@H](C(=O)NO)[C@@H]3c3ccccc3)c2)nc1 [Compound 77, (1R,2R,3R)—N-Hydroxy-2-(3-(5-methylpyrimidin-2-yl)phenyl)-3-phenylcyclopropanecarboxamide]",160 nM,780 nM
"O=C(NO)[C@@H]1[C@H](c2ccccc2)[C@H]1c1ccc(Br)cc1 (racemic) [Compound 16c, (1R*,2R*,3R*)-2-(4-Bromophenyl)-N-hydroxy-3-phenylcyclopropanecarboxamide]",370 nM,2870 nM
"O=C(NO)[C@@H]1[C@H](c2ccccc2)[C@H]1c1ccc(-c2ccnnc2)cc1 (racemic) [Compound 50g, (1R*,2R*,3R*)—N-Hydroxy-2-phenyl-3-(4-(pyridazin-4-yl)phenyl)cyclopropanecarboxamide]",110 nM,660 nM
"CC(C)N1CCN(c2ccc([C@H]3[C@H](C(=O)NO)[C@@H]3c3ccccc3F)cn2)CC1 [Compound 83, (1S,2R,3R)-2-(2-Fluorophenyl)-N-hydroxy-3-(6-(4-isopropylpiperazin-1-yl)pyridin-3-yl)cyclopropanecarboxamide]",120 nM,750 nM
"CC(C)N1CCN(c2cccc([C@H]3[C@H](C(=O)NO)[C@@H]3c3ccccc3)c2)CC1 (racemic) [Compound 56b, (1R*,2R*,3R*)—N-Hydroxy-2-(3-(4-isopropylpiperazin-1-yl)phenyl)-3-phenylcyclopropanecarboxamide]",1430 nM,5080 nM
"O=C(NO)[C@@H]1[C@H](c2ccccc2)[C@H]1c1cnc2ccccn12 [Compound 115, (1R,2R,3R)—N-hydroxy-2-(imidazo[1,2-a]pyridin-3-yl)-3-phenylcyclopropanecarboxamide]",550 nM,6660 nM
"CN1CCOc2cc(-c3ccc([C@H]4[C@H](C(=O)NO)[C@@H]4c4ccccc4)cc3)ccc21 [Compound 54c, (1R,2R,3R)—N-hydroxy-2-(4-(4-methyl-3,4-dihydro-2H-benzo[b][1,4]oxazin-7-yl)phenyl)-3-phenylcyclopropanecarboxamide]",260 nM,1430 nM
"CC(C)c1nc2ccc([C@H]3[C@H](C(=O)NO)[C@@H]3c3ccccc3)cc2o1 [Compound 39, (1R,2R,3R)—N-hydroxy-2-(2-isopropylbenzo[d]oxazol-6-yl)-3-phenylcyclopropanecarboxamide]",20 nM,220 nM
"O=C(NO)[C@@H]1[C@H](c2ccccc2)[C@H]1c1ccc(-c2ccc3c(c2)CN(C2CC2)C3)cc1 (racemic) [Compound 52, (1R*,2R*,3R*)-2-(4-(2-cyclopropylisoindolin-5-yl)phenyl)-N-hydroxy-3-phenylcyclopropanecarboxamide]",480 nM,1790 nM
"CC(C)N1CCN(c2ccc([C@H]3[C@H](C(=O)NO)[C@@H]3c3ccccc3)cc2)CC1 (racemic) [Compound 56a, (1R*,2R*,3R*)—N-Hydroxy-2-(4-(4-isopropylpiperazin-1-yl)phenyl)-3-phenylcyclopropanecarboxamide]",90 nM,760 nM
"O=C(NO)[C@@H]1[C@H](c2ccccc2)[C@H]1c1cnn(-c2ccc(C(F)(F)F)cn2)c1 [Compound 92b, (1R,2R,3R)—N-Hydroxy-2-phenyl-3-(1-(5-(trifluoromethyl)pyridin-2-yl)-1H-pyrazol-4-yl)cyclopropanecarboxamide]",180 nM,1170 nM
"Cc1ccn(-c2ccc([C@H]3[C@H](C(=O)NO)[C@@H]3c3ccccc3)cc2)n1 [Compound 79, (1R,2R,3R)—N-Hydroxy-2-(4-(3-methyl-1H-pyrazol-1-yl)phenyl)-3-phenylcyclopropanecarboxamide]",90 nM,650 nM
"O=C(NO)[C@H]1[C@H](c2ccc(NCC(F)(F)F)nc2)[C@H]1c1ccccc1F [Compound 106, (1S,2R,3R)-2-(2-Fluorophenyl)-N-hydroxy-3-(6-((2,2,2-trifluoroethyl)amino)pyridin-3-yl)cyclopropanecarboxamide]",170 nM,1410 nM
"CC(C)Oc1ccccc1[C@@H]1C(c2ccccc2)[C@H]1C(=O)NO (mixture of isomers) [Compound 11a, (1R,2R,3R*)—N-Hydroxy-2-(2-isopropoxyphenyl)-3-phenylcyclopropanecarboxamide]",20600 nM,50000 nM
